Literature values as cited in patent publication US20040208906A1, “Pharmaceutical composition for topical administration” (Daiichi Suntory Pharma Co., Ltd., priority 1999, published 2004).

Assays:
[1] = tested on: Gram-positive bacteria (MSSA, Streptococcus pyogenes, Streptococcus pneumoniae, PRSP, oral streptococci, enterococci); settings: Gram-positive bacteria incl. MSSA
[2] = tested on: pathogens of periodontitis, including Porphyromonas gingivalis

For `C[C@@H](O)[C@H]1C(=O)N2C(C(=O)[O-])=C([C@H]3CCCO3)S[C@H]12.[Na+]` [Compound 1, sodium (+)-(5R,6S)-6-[(R)-1-hydroxyethyl]-7-oxo-3-[(R)-2-tetrahydrofuryl]-4-thia-1-azabicyclo[3.2.0]hept-2-ene-2-carboxylate], the antibacterial activity [1] is given as “potent antibacterial activity” and the antibacterial activity [2] is given as “potent antibacterial activity”.
